Reference: patent US7943664B2, “Phosphate binding materials and their uses” (Medical Research Council, priority 2008, dated 2011)

How the values were obtained:
[1] = Langmuir isotherms, determination of affinity and capacity; assay type: physicochemical; conditions: Langmuir isotherm at pH 5, 10 mM phosphate, 0.9% NaCl, binder mass 13.4-80.4 mg
Procedure: The Langmuir isotherms were obtained using the same methodology as in Autissier et al. (2007), except in vitro solutions also contained 0.9% NaCl to make the assay better simulate physiological conditions. These Langmuir isotherms were generated at pH 5 and experimental conditions were similar to those in “Phosphate binding at physiological concentration” except the mass of binders was varied from 13.4-80.4 mg.
We further compared the phosphate binding abilities of FeOH Ad100, FeOH Ad100 SiO2, and lanthanum using Langmuir isotherms. The Langmuir equation relates the adsorption of molecules on a solid surface to a concentration and was adapted to determine the affinity and capacity of the above noted phosphate binders:
C=concentration of adsorbate unbound in mM
Cad/m=mmol of adsorbate bound per g binder
It was not possible to determine these values for Renagel because its low affinity required a higher concentration of phosphate than the physiologically relevant concentration (10 mM) that was tested in this experiment. Langmuir isotherms were generated at pH 5 and experimental conditions were similar to those in FIGS. 2a/b, except the mass of binders was varied from 13.4-80.4 mg.

[2] = In vitro phosphate binding at physiological concentration; assay type: physicochemical
Procedure: An exemplary assay for determining phosphate binding is reported in the example 2.1 in which equal masses of ferrihydrite (e.g. 53.6 mg), or indeed any other binder used as a comparison, and a phosphate binder of the present invention were assayed to determine the percentage of phosphate they are capable of binding under physiological conditions. In general, the mass of the materials used in the assay may be between 10 mg and 80 mg inclusive in a 20 mL assay. […]
A solution containing 10 mM phosphate, a physiologically relevant concentration, and 0.9% NaCl was adjusted to pH 3, pH 5 and finally pH 7. […] The percentage of phosphate binding was calculated according to: Phosphate binding=(1−([P]t0−[P]ti)/[P]ti)×100 […]
Iron and phosphorus contents of solutions or solids (including wet solids) were measured using a JY2000-2 ICPOES (Horiba Jobin Yvon Ltd., Stanmore, U.K.) at the iron specific wavelength of 259.940 nm, and at the phosphorus wavelengths of 177.440 and/or 214.914 nm. […] The percentage of iron in solution or solid phase was determined by the difference between the starting iron content and either the iron in the soluble phase or the iron in the solid phase depending on the assay. […]

In the case of O=C([O-])[O-].O=C([O-])[O-].O=C([O-])[O-].[La+3].[La+3] [Lanthanum Carbonate, Lanthanum carbonate], the “K1 (Affinity)” value [1] is reported as 1.6, the “K2 (Capacity)” value ([1]; unit printed for K2, not in the table) is reported as 1.0 mmol P/g binder and the phosphate binding ([2]; 20 mL 10 mM phosphate, 0.9% NaCl, 54 mg (53.6 mg) binder, pH 3 for 60 min then pH 5 for 60 min, sequentially (FIG. 2a/b)) is reported as 70-85%. The phosphate binding ([2]; binder exposed directly to the solution at pH 5 for 1 hour, without pre-conditioning at pH 3 (FIG. 3)) was “≈ 30%”.
